# Experimental data published in paper PMC7661967, “Magnetic Resonance Molecular Imaging of Extradomain B Fibronectin Improves Imaging of Pancreatic Cancer Tumor Xenografts” (Frontiers in Oncology, 2020).
# “And” between values parts separate entries of the source, which are not always exact repeats. Equal entries are not always repeated. “Also recorded” adds a separate entry of the source. No end group written: not given here.
# Columns and labels:
# EDB fragment of FN = molecular target: T1, EDB fragment of FN (Homo sapiens, UniProt P02751); assay: Microscale thermophoresis binding affinity; conditions: MST
# T1 construct: The EDB fragment of FN was expressed in E. coli; made in house; host or cells: E. coli
# Description: The binding affinity of MT218 was determined with microscale thermophoresis (MST) using a Nanotemper Monolith NT.115 instrument (NanoTemper Technologies, Munich, Germany). The EDB fragment of FN was expressed in E. coli, purified, and labeled with amine-reactive dye NT-647. MT218 was dissolved into assay buffer (50 mM PBS w/0.05% Tween-20). This solution was further diluted using assay buffer to give a series of MT218 working solutions. Each MT218 working solution was then mixed with a fixed concentration of fluorescently labeled EDB fragment. The mixtures of MT218 and EDB were then loaded into standard capillaries, and MST measurements were performed at 25°C using 20–80% light-emitting diode power and 40% infrared-laser power at varying concentrations of MT218.
# [1] = test system: BxPC3-GFP-Luc intrapancreatic tumor xenografts; assay: MRMI of BxPC3-GFP-Luc intrapancreatic tumor xenografts (3T); assay type: in vivo, human cells in female nu/nu mice
# Description: For flank xenograft models, 4 × 10^6 Capan-1 cells suspended in 100 μL of a 6 mg/mL Matrigel (Corning, Corning, NY) solution was injected subcutaneously into the flank of 8-week-old female nu/nu mice. The tumor bearing mice were imaged after tumor volumes exceeded 300 mm^3. For orthotopic intrapancreatic models, the pancreas of 4-week-old female nu/nu mice were surgically exposed via a ~10 mm incision in the left ventral abdomen and the application of gentle pressure to express the spleen and associated pancreatic tissue. 1 × 10^6 BxPC3-GFP-Luc or PANC-1-GFP-Luc cells suspended in 100 μL of a Matrigel solution (6 mg/mL) was injected into the pancreatic tissue using an insulin syringe with a 31G needle. Any leakage of cell suspension was lavaged with DPBS twice to prevent intraabdominal seeding PaCa cells. The peritoneal fascia was closed with absorbable stitches, and the dermis closed with stainless steel wound clips. Prior to imaging, growth of tumor was verified by bioluminescence imaging with intraperitoneal injection of d-luciferin on IVIS Spectrum system (Perkin Elmer, Waltham, MA).
# (§1) Mice bearing intrapancreatic tumors were anesthetized and a tail vein catheter was inserted. Image acquisition was performed on a MR Solutions 3T MRS 3000 scanner with a mouse radiofrequency coil. Axial images were obtained using a Fast Spin Echo (FSE) MRI sequence (305 ms TR, 11 ms TE, 90° FA, 4 cm × 4 cm FOV, 1 mm slice thickness, 10 slices, echo train length = 4, echo spacing = 11 ms, 4 averages, 256 × 256 matrix, 0.0156 × […] cm/pixel resolution) with respiratory gating. Images were acquired before contrast and at different time points after contrast injection at a dose of 0.1 mmol/kg (100 μL). For competitive binding experiments, a 5:1 molar ratio of free ZD2 peptide to MT218 was injected in mice bearing intrapancreatic BxPC3 tumor xenografts (n = 3) at a dose of 0.1 mmol MT218/kg (100 μL). Images obtained on the MR Solutions 3T scanner were normalized using the Surscalereader.exe (MR Solutions, Guildford, UK) program supplied.
# Image files were exported and analyzed in Horus software. ROIs were drawn in the tumor, liver, kidney, and muscle. Muscle ROIs were taken from the muscle, with other structures (liver, kidney, tumor) identified after comparison with published images and comparison with anatomical landmarks or bioluminescent imaging. Pancreatic lesions were localized using the liver, kidney, and spleen as anatomical landmarks. […] Size of ROIs drawn for image analysis are summarized in Supplementary Table 1. The contrast-to-noise ratio of the tumor (CNR) was calculated using the following equation, where σnoise is the standard deviation of intensities from an ROI drawn outside of the mouse body:
# CNR=Mean IntensityTumor-Mean IntensityMuscle/σnoise.
# Image subtraction was performed on images adjusted to the same window and level in FIJI open-source software.
# Image contrast was reported as fold enhancement of contrast to noise ratio of post-contrast images over pre-contrast images using Fold Enhancement = CNRpost/CNRpre. Statistical analysis of CNR was performed in Minitab Express (Minitab Inc., State College, PA). One-way ANOVA with Fisher Individual Tests for Differences of Means post-hoc testing was performed to determine statistical significance between >2 means (p < 0.05). Student's T test was used to determine statistical significance between 2 means (p < 0.05).
# [2] = Liver CNR in contrast-enhanced MRI; assay type: in vivo, nu/nu mice; conditions: for liver CNR, MT218 vs Gd(HP-DO3A): 0.1 mmol/kg, p > 0.05
# Description: Flank tumor-bearing mice were anesthetized and a tail vein catheter inserted. MR image acquisition was performed on a 7T Biospin (Bruker, Billerica, MA) preclinical small animal scanner with a volume radiofrequency coil. Axial images were obtained using a multi-spin multi-echo (MSME) MRI sequence (500 ms TR, 8.1 ms TE, 90° FA, 4.50 cm × 4.50 cm FOV, 1.50 mm slice thickness, 16 slices, 2 averages, 200 × 200 matrix, 0.0225 × 0.0225 cm/pixel resolution). Contrast agents were injected at a dose of 0.1 mmol/kg (100 μL) via the tail vein catheter, followed by a saline flush. Images of the tumors were acquired before contrast and at various time points after contrast administration. Gd(HP-DO3A) was used as a control.
# as §1
# Image files were exported and analyzed in Horus software. ROIs were drawn in the tumor, liver, kidney, and muscle. […] The contrast-to-noise ratio of the tumor (CNR) was calculated using the following equation, where σnoise is the standard deviation of intensities from an ROI drawn outside of the mouse body:
# The contrast to noise ratio of the liver (CNR) was calculated using the following equation: […]
# [3] = 0.1 mmol/kg, 10 min post-injection, n = 3
# T1 sequence (P02751 1271-1359 limits assumed): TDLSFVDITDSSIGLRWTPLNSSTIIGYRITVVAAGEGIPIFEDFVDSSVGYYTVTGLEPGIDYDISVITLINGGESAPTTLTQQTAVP
substance,measurement,setting,value
"ZD2-N3-Gd(HP-DO3A) (TVRTSAD; also: conjugated via N3 to Gd(HP-DO3A) contrast agent, end not given here) [MT218, small molecular conjugate of ZD2 peptide to a macrocyclic clinical MRI contrast agent Gd(HP-DO3A)]",binding affinity (in words),EDB fragment of FN; MT218 to EDB-FN,micromolar affinity; also recorded: moderate binding affinity
same,Kd,"EDB fragment of FN; NT-647-labeled EDB fragment, 50 mM PBS w/0.05% Tween-20, 25°C",3.2 ± 0.2 µM
same,tumor CNR increase (post/pre),"[1]; 0.1 mmol/kg, 10 min post-injection (maximum for MT218), n = 3",5.3 fold
same,tumor contrast enhancement,[1]; [3],strong contrast enhancement
same,"tumor enhancement, subtraction images",[1]; [3],strong enhancement and clear delineation
same,tumor contrast enhancement,"[1]; 0.1 mmol/kg, 20 min post-injection, n = 3",decreased
same,tumor contrast enhancement,"[1]; 0.1 mmol/kg, 30 min post-injection, n = 3",returned to background levels
same,MT218 CNR relative to control,"[1]; BxPC3-GFP-Luc intrapancreatic, control Gd(HP-DO3A), p < 0.05",212%
same,CNR relative to clinical agent,"[1]; BxPC3-GFP-Luc intrapancreatic, vs Gd(HP-DO3A), p < 0.05",2.1 times
same,CNR increase,"[1]; MT218 0.1 mmol/kg co-injected with 5-fold excess free ZD2 peptide, n = 3",approximately 2.5 fold
same,"contrast enhancement, competitive binding experiment","[1]; MT218 0.1 mmol/kg co-injected with 5-fold excess free ZD2 peptide, vs MT218 alone, n = 3",significant reduction of contrast enhancement
same,CNR with free ZD2 peptide compared with MT218 alone,"[1]; MT218 co-injected with 5-fold free ZD2 peptide, n = 3, p < 0.05",significant decrease in tumor CNR; also recorded: significantly lower
same,size of smallest tumor detected / better visualized,"[1]; smallest average size / area of tumor nodules, cf. BxPC3 + MT218 ROI in Supplementary Table 1",6.1 mm^2 and 6.13 mm^2
same,"liver CNR, MT218 vs Gd(HP-DO3A)",[2]; BxPC3-GFP-Luc and PANC-1-GFP-Luc intrapancreatic models,No difference in CNR
same,"liver CNR, MT218 vs Gd(HP-DO3A)",[2]; Capan-1 flank model,No significant difference in CNR
same,non-specific signal enhancement in hepatic tissue,[2]; MRMI with MT218,Minimal non-specific signal enhancement
